In paper PMC5701137, “Discovery of novel choline acetyltransferase inhibitors using structure-based virtual screening” (Scientific Reports, 2017):

Tested on: HEK 293 cells
Assay: MTT cell viability assay
Assay type: cell-based
Details: for % of cell proliferation: overnight, control cells 100%, mean ± SD of 3 readings; for cellular toxicity in MTT assay (in words): 10 and 50 µM
Method: Finally, to assess the prospective of the identified compounds for further development into ChAT ligands, we assessed the compounds active against ChAT, AChE and BuChE, for their cellular toxicity on human embryonic kidney (HEK 293) cells using the cell viability 3-(4,5-dimethylthiazol-2-yl)-2,5-diphenyltetrazolium bromide (MTT) assay. All compounds were evaluated at 10 and 50 µM concentrations. The cell viability data is given in Table 4 (also represented as a bar chart in Fig. 9).
The in vitro cellular toxicity of the active compounds was evaluated using MTT assay. Briefly, Human embryonic kidney epithelial (HEK-293) cells cultured at 37 °C in a humidified environment with 5% CO2 in Dulbecco’s Modified Eagle’s medium (DMEM) in 96 well plate to obtain 70–80% confluency. Further, the cells were incubated overnight at 37 °C with 10 µM and 50 µM compounds in triplicate. Cells treated with 1% DMSO were used as controls. At the end of the treatment (12 h), 10 μL of 12 mM MTT dissolved in Phosphate buffer saline pH 7.4, was added to each well and incubated for an additional 2 h at 37 °C. The media was then removed from the plate and 100 µL of DMSO was added to dissolve the violet formazan crystals. Finally, the absorbance was measured at 540 nm with a reference wavelength of 630 nm on Tecan spectrophotometer with shaking before the reading. The percentage viability was calculated taking 1% DMSO control as 100 percent and presented as mean ± SD.

SMILES: CC(C)NC(=O)C1CCN(C(=O)c2csc(Nc3cccc4ccccc34)n2)CC1 [Compound B4]
- % of cell proliferation (10 µM): 106.4 ± 5.8%
- % of cell proliferation (50 µM): 74.2 ± 3.9%
- cellular toxicity in MTT assay (in words): lower cellular toxicity

SMILES: CC(C)c1ccc(C(=O)CSc2n[nH]c(-c3ccco3)n2)cc1 [Compound E1]
- % of cell proliferation (10 µM): 101.9 ± 0.6%
- % of cell proliferation (50 µM): 75.4 ± 4.9%
- cellular toxicity in MTT assay (in words): lower cellular toxicity
